The text below walks through data of PMC8150835, “An Smp43-Derived Short-Chain α-Helical Peptide Displays a Unique Sequence and Possesses Antimicrobial Activity against Both Gram-Positive and Gram-Negative Bacteria” (Toxins, 2021).

Assay type in all cases: cell-based
The subject of one data set is human red blood cells. In words: Hemolytic activity determination. As to conditions: 2% (v/v) hRBCs, peptide 12.5-200 μg/mL, 37 °C, 1 h, absorbance 540 nm; 1% Triton X-100 = 100%; three independent experiments. Here is the method: The hemolytic activities of the peptides were determined against human red blood cells (hRBCs). Briefly, fresh hRBCs anticoagulated with sodium citrate were rinsed with 0.9% sodium chloride by centrifugation (1000× g, 5 min). Then, the cells were diluted to a final concentration of 2% (v/v) and prepared in a clear 96-well polypropylene microtiter plate. Next, the samples were mixed with a series of concentrations of the peptide (12.5, 25, 50, 100 and 200 μg/mL) and incubated at 37 °C for 1 h. After that, the samples were centrifuged (2000× g, 10 min), and the absorbances of the supernatants were measured at 540 nm to evaluate the release of hemoglobin. HRBCs treated with 1% Triton X-100 or 0.9% sodium chloride were taken as 100% and 0% hemolysis, respectively.

Data set [1] concerns Staphylococcus aureus ATCC29213. The experiment in a line: MIC determination (broth microdilution). As to conditions: MHB, 5 × 10^5 CFU/mL, peptide 0.625 to 40 μg/mL, 37 °C, 18 h, OD 630 nm. Here is the method:
(§1) The antimicrobial activities of the peptides were tested against S. aureus ATCC29213, E. faecalis ATCC29212, E. coli ATCC25922, K. pneumoniae ATCC700603, P. aeruginosa ATCC27853 and A. baumannii ATCC19606. All these strains were purchased from the China Center of Type Culture Collection (CCTCC).
(§2) The antimicrobial activities of the peptides were determined as previously described. Briefly, the bacteria were incubated at 37 °C and 150 rpm until the log phase of growth. Next, the bacteria were diluted with Mueller-Hinton broth (MHB, Oxoid, UK) and prepared in a clear round-bottom polypropylene 96-well microtiter plate to achieve a final concentration of 5 × 10^5 colony-forming unit (CFU)/mL. Twofold serial dilutions of the peptides were added into each well with the concentrations ranging from 0.625 to 40 μg/mL. The mixed peptides and cells were cultured at 37 °C and 150 rpm for 18 h, and the optical density (OD) was measured at 630 nm. The minimum inhibitory concentration was defined as the lowest peptide concentration with no detectable bacterial growth.
For orientation: Broth dilution looks for growth in wells or tubes with falling amounts of substance.

Data set [2] has as its system Enterococcus faecalis ATCC29212. In words: MIC determination (broth microdilution). As to conditions: MHB, 5 × 10^5 CFU/mL, peptide 0.625 to 40 μg/mL, 37 °C, 18 h, OD 630 nm. On the procedure: as §1, §2
Data set [3] relates to Pseudomonas aeruginosa ATCC27853. In words: MIC determination (broth microdilution). To be noted: MHB, 5 × 10^5 CFU/mL, peptide 0.625 to 40 μg/mL, 37 °C, 18 h, OD 630 nm. Here is the method: as §1, §2
For data set [4], the system named is Acinetobacter baumannii ATCC19606. In words: MIC determination (broth microdilution). To be noted: MHB, 5 × 10^5 CFU/mL, peptide 0.625 to 40 μg/mL, 37 °C, 18 h, OD 630 nm. Here is the method:
as §1, §2

Data set [5] relates to Klebsiella pneumoniae ATCC700603. The experiment in a line: MIC determination (broth microdilution). As to conditions: MHB, 5 × 10^5 CFU/mL, peptide 0.625 to 40 μg/mL, 37 °C, 18 h, OD 630 nm. On the procedure: as §1, §2
Data set [6] has as its system Escherichia coli ATCC25922. The experiment in a line: MIC determination (broth microdilution). As to conditions: MHB, 5 × 10^5 CFU/mL, peptide 0.625 to 40 μg/mL, 37 °C, 18 h, OD 630 nm. Here is the method: as §1, §2

Each structure is given as a SMILES string. Where a SMILES comes first, the peptide text is derived from it.

A word on the MIC: it is the smallest concentration in the dilution series that meets the test's criterion for growth inhibition. High values mean a need for much substance, low ones inhibition by little substance. `CC[C@H](C)[C@H](NC(=O)[C@H](CCCCN)NC(=O)[C@H](CCC(=O)O)NC(=O)[C@H](C)NC(=O)[C@@H](NC(=O)[C@H](Cc1ccccc1)NC(=O)[C@H](CC(N)=O)NC(=O)[C@H](CCCCN)NC(=O)[C@H](C)NC(=O)[C@H](C)NC(=O)[C@H](CC(N)=O)NC(=O)[C@H](CC(C)C)NC(=O)[C@H](C)NC(=O)[C@@H](N)CCC(N)=O)C(C)C)C(N)=O` [Smp43(25-38)] (H-QALNAAKNFVAEKI-NH2): the “HC10: the concentration of the peptide that causes 10% hemolysis of human red blood cells” value in the data set with human red blood cells was more than 200 µg/mL. Besides, the MIC in data set [1], in data set [2], in data set [3], in data set [4], in data set [5] and in data set [6] was more than 40 µg/mL throughout.
As to `CC[C@H](C)[C@H](NC(=O)[C@H](CCCCN)NC(=O)CN)C(=O)N[C@@H](Cc1c[nH]c2ccccc12)C(=O)N[C@@H](CC(N)=O)C(=O)N[C@@H](CO)C(=O)N[C@@H](CCC(=O)O)C(=O)N1CCC[C@H]1C(=O)N[C@H](C(=O)N[C@@H](CCCCN)C(=O)N[C@@H](C)C(=O)N[C@@H](CC(C)C)C(=O)N[C@@H](CCCCN)C(=O)N[C@@H](CO)C(N)=O)C(C)C` [Smp43(11-24)] (H-GKIWNSEPVKALKS-NH2), the “HC10: the concentration of the peptide that causes 10% hemolysis of human red blood cells” value in the data set on human red blood cells is more than 200 µg/mL. The minimal inhibitory concentration (MIC) in data set [1], in data set [2], in data set [3], in data set [4], in data set [5] and in data set [6] was more than 40 µg/mL each time.
In the case of `CC(C)C[C@H](NC(=O)[C@H](C)N)C(=O)N[C@@H](CCCCN)C(=O)N[C@@H](CO)C(=O)N[C@@H](CCC(N)=O)C(=O)N[C@@H](C)C(=O)N[C@@H](CC(C)C)C(=O)N[C@@H](CC(N)=O)C(=O)N[C@@H](C)C(=O)N[C@@H](C)C(=O)N[C@@H](CCCCN)C(=O)N[C@@H](CC(N)=O)C(=O)N[C@@H](Cc1ccccc1)C(=O)N[C@H](C(N)=O)C(C)C` [Smp43(21-34)] (H-ALKSQALNAAKNFV-NH2), the “HC10: the concentration of the peptide that causes 10% hemolysis of human red blood cells” value with human red blood cells is more than 200 µg/mL. Also, the minimal inhibitory concentration (MIC) in data set [1], in data set [2], in data set [3], in data set [4], in data set [5] and in data set [6] was more than 40 µg/mL in each case.
`CC[C@H](C)[C@H](NC(=O)[C@H](CCCCN)NC(=O)[C@H](CCC(=O)O)NC(=O)[C@H](C)NC(=O)[C@@H](NC(=O)[C@H](Cc1ccccc1)NC(=O)[C@H](CC(N)=O)NC(=O)[C@H](CCCCN)NC(=O)[C@H](C)NC(=O)[C@H](C)NC(=O)[C@H](CC(N)=O)NC(=O)[C@@H](N)CC(C)C)C(C)C)C(=O)NCC(=O)N[C@@H](C)C(N)=O` [Smp43(27-40)] (H-LNAAKNFVAEKIGA-NH2): the “HC10: the concentration of the peptide that causes 10% hemolysis of human red blood cells” value in the data set on human red blood cells was more than 200 µg/mL. Besides, the minimum inhibitory concentration (MIC) in data set [1], in data set [2], in data set [3], in data set [4], in data set [5] and in data set [6] was more than 40 µg/mL each time.
With `CC(C)C[C@H](NC(=O)[C@H](C)NC(=O)[C@H](CCC(N)=O)NC(=O)[C@H](CO)NC(=O)[C@H](CCCCN)NC(=O)[C@H](CC(C)C)NC(=O)[C@H](C)NC(=O)[C@H](CCCCN)NC(=O)[C@@H](NC(=O)[C@@H]1CCCN1C(=O)[C@H](CCC(=O)O)NC(=O)[C@H](CO)NC(=O)[C@@H](N)CC(N)=O)C(C)C)C(=O)N[C@@H](CC(N)=O)C(N)=O` [Smp43(15-28)] (H-NSEPVKALKSQALN-NH2), in the data set with human red blood cells, the “HC10: the concentration of the peptide that causes 10% hemolysis of human red blood cells” value was more than 200 µg/mL. In addition, the minimal inhibitory concentration (MIC) in data set [1], in data set [2], in data set [3], in data set [4], in data set [5] and in data set [6] was more than 40 µg/mL each time.
